Results: PubChem BioAssay AID330 (DTP/NCI, 2004)
Values joined by “and” are separate entries in the source; they are usually repeats but may differ in a detail not shown here. Identical values can stand only once. Inconclusive results and toxic doses are left out. Rule for the calls: active = survival T/C of 150% or more; inactive = T/C below 125% in these data.

System: P388 leukemia ip, CD2F1 mice, survival T/C
Experiment: NCI In Vivo Anticancer Drug Screen. Data for tumor model P388 Leukemia (intraperitoneal) in CD2F1 (CDF1) mice
Conditions: endpoint: median survival time, higher = longer survival
Method in brief: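 Mice carrying the transplanted tumor received test compound or vehicle. Survival was recorded in each group, and the value is the treated-group measurement divided by that of the vehicle-treated control group.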

[1] = dose: 60.0 mg/kg/injection, schedule: Q01DX005 (ip), vehicle: saline with Tween-80
[2] = dose: 120.0 mg/kg/injection, schedule: Q01DX005 (ip), vehicle: saline with Tween-80
[3] = dose: 240.0 mg/kg/injection, schedule: Q01DX005 (ip), vehicle: saline with Tween-80
[4] = dose: 50.0 mg/kg/injection, schedule: Q01DX009 (ip), vehicle: Klucel (hydroxypropylcellulose) (HPC)
[5] = dose: 100.0 mg/kg/injection, schedule: Q01DX009 (ip), vehicle: Klucel (hydroxypropylcellulose) (HPC)
[6] = dose: 200.0 mg/kg/injection, schedule: Q01DX009 (ip), vehicle: Klucel (hydroxypropylcellulose) (HPC)
[7] = dose: 12.5 mg/kg/injection, schedule: Q01DX009 (ip), vehicle: saline with Tween-80
[8] = dose: 25.0 mg/kg/injection, schedule: Q01DX009 (ip), vehicle: saline with Tween-80
[9] = dose: 50.0 mg/kg/injection, schedule: Q01DX009 (ip), vehicle: saline with Tween-80
[10] = dose: 200.0 mg/kg/injection, schedule: Q01DX009 (ip), vehicle: saline with Tween-80

Measured: T/C

O=C1c2cc([N+](=O)[O-])ccc2-c2c(N=Cc3ccc4c(c3)OCO4)cccc21
inactive: [1] 90 % of control | [2] 91 % of control | [3] 99 % of control

CN(C)CCOc1ccccn1
inactive: dose: 50.0 mg/kg/injection, schedule: Q01DX009 (ip), vehicle: saline 98 % of control | dose: 100.0 mg/kg/injection, schedule: Q01DX009 (ip), vehicle: saline 101 % of control

Cc1ccc(S(=O)(=O)N/N=C2/C=CC3(CCCC3)CC2)cc1
inactive: dose: 50.0 mg/kg/injection, schedule: Q01DX001 (ip), vehicle: Klucel (hydroxypropylcellulose) (HPC) 88 % of control | dose: 100.0 mg/kg/injection, schedule: Q01DX001 (ip), vehicle: Klucel (hydroxypropylcellulose) (HPC) 91 % of control | dose: 200.0 mg/kg/injection, schedule: Q01DX001 (ip), vehicle: Klucel (hydroxypropylcellulose) (HPC) 88 % of control and 90 % of control | dose: 400.0 mg/kg/injection, schedule: Q01DX001 (ip), vehicle: Klucel (hydroxypropylcellulose) (HPC) 89 % of control

Clc1nc(Cl)nc(Nc2ccc(-c3cc4ccc(-c5ncc[nH]5)cc4[nH]3)cc2)n1
inactive: dose: 60.0 mg/kg/injection, schedule: Q01DX005 (ip), vehicle: Klucel (hydroxypropylcellulose) (HPC) 100 % of control | dose: 120.0 mg/kg/injection, schedule: Q01DX005 (ip), vehicle: Klucel (hydroxypropylcellulose) (HPC) 100 % of control | dose: 240.0 mg/kg/injection, schedule: Q01DX005 (ip), vehicle: Klucel (hydroxypropylcellulose) (HPC) 105 % of control

Cc1ccc(C(=S)N=P(c2ccccc2)(c2ccccc2)c2ccccc2)cc1
inactive: dose: 50.0 mg/kg/injection, schedule: Q01DX005 (ip), vehicle: saline with Tween-80 99 % of control | dose: 100.0 mg/kg/injection, schedule: Q01DX005 (ip), vehicle: saline with Tween-80 107 % of control | dose: 200.0 mg/kg/injection, schedule: Q01DX005 (ip), vehicle: saline with Tween-80 100 % of control

O=C(OCCCCI)c1ccccc1
inactive: dose: 25.0 mg/kg/injection, schedule: Q01DX009 (ip), vehicle: saline + Tween-80 + alcohol 105 % of control | dose: 50.0 mg/kg/injection, schedule: Q01DX009 (ip), vehicle: saline + Tween-80 + alcohol 103 % of control | dose: 100.0 mg/kg/injection, schedule: Q01DX009 (ip), vehicle: saline + Tween-80 + alcohol 104 % of control | dose: 2000.0 mg/kg/injection, schedule: Q01DX009 (ip), vehicle: saline + Tween-80 + alcohol 114 % of control

CC1OC(C)C(O)C2=C1C(=O)c1ccccc1C2=O (stereo unspecified)
inactive: [1] 100 % of control | [2] 100 % of control

O=C1C=CC(CCCCCn2ccc(=O)[nH]c2=O)C(=O)N1 (stereo unspecified)
inactive: dose: 100.0 mg/kg/injection, schedule: Q01DX001 (ip), vehicle: saline 90 % of control | dose: 200.0 mg/kg/injection, schedule: Q01DX001 (ip), vehicle: saline 100 % of control | dose: 400.0 mg/kg/injection, schedule: Q01DX001 (ip), vehicle: saline 100 % of control

CC(N1CCOCC1)C(O)(c1ccccc1)c1ccccn1 (stereo unspecified)
inactive: dose: 50.0 mg/kg/injection, schedule: Q01DX005 (ip), vehicle: saline + alcohol 103 % of control | dose: 100.0 mg/kg/injection, schedule: Q01DX005 (ip), vehicle: saline + alcohol 115 % of control

CC[N+](CC)(CC)Cc1ccccc1
inactive: dose: 6.25 mg/kg/injection, schedule: Q04DX003 (ip), vehicle: saline sonified 109 % of control | dose: 12.5 mg/kg/injection, schedule: Q04DX003 (ip), vehicle: saline sonified 109 % of control | dose: 25.0 mg/kg/injection, schedule: Q04DX003 (ip), vehicle: saline sonified 109 % of control

Oc1c(Br)cc(Br)cc1/C=N/NC(=S)N/N=C/c1cc(Br)cc(Br)c1O
inactive: dose: 12.5 mg/kg/injection, schedule: Q01DX009 (ip), vehicle: distilled water + Tween-80 97 % of control | dose: 25.0 mg/kg/injection, schedule: Q01DX009 (ip), vehicle: distilled water + Tween-80 103 % of control and 108 % of control | dose: 50.0 mg/kg/injection, schedule: Q01DX009 (ip), vehicle: distilled water + Tween-80 118 % of control

OC12CCCCC1CCCS2 (stereo unspecified)
inactive: dose: 100.0 mg/kg/injection, schedule: Q04DX003 (ip), vehicle: saline 98 % of control | dose: 200.0 mg/kg/injection, schedule: Q04DX003 (ip), vehicle: saline 94 % of control | dose: 400.0 mg/kg/injection, schedule: Q04DX003 (ip), vehicle: saline 102 % of control

O=[N+]([O-])CCCN=NN1CCCCC1
inactive: dose: 12.5 mg/kg/injection, schedule: Q04DX002 (ip), vehicle: saline 104 % of control | dose: 25.0 mg/kg/injection, schedule: Q04DX002 (ip), vehicle: saline 107 % of control | dose: 50.0 mg/kg/injection, schedule: Q04DX002 (ip), vehicle: saline 103 % of control

COc1cc2c(cc1OC)C1N(CC2)C(=O)NC1(C)C (stereo unspecified)
inactive: [1] 97 % of control | [2] 103 % of control | [3] 98 % of control

[NH2-].[NH2-].[NH2-].[NH2-].[NH2-].[NH2-].[Ni]
inactive: dose: 6.25 mg/kg/injection, schedule: Q01DX001 (ip), vehicle: saline 97 % of control | dose: 12.5 mg/kg/injection, schedule: Q01DX001 (ip), vehicle: saline 100 % of control | dose: 25.0 mg/kg/injection, schedule: Q01DX001 (ip), vehicle: saline 98 % of control

Cc1ccc(S(=O)(=O)OCCn2nc(C)c3c(C)cc(=O)oc32)cc1
inactive: [4] 103 % of control | [5] 107 % of control | [6] 100 % of control

Oc1cc(CN2CCOCC2)c(O)cc1CN1CCOCC1
inactive: dose: 1.56 mg/kg/injection, schedule: Q01DX009 (ip), vehicle: saline with Tween-80 100 % of control | dose: 3.13 mg/kg/injection, schedule: Q01DX009 (ip), vehicle: saline with Tween-80 119 % of control and 121 % of control | dose: 6.25 mg/kg/injection, schedule: Q01DX009 (ip), vehicle: saline with Tween-80 113 % of control | [7] 113 % of control | [8] 117 % of control

Cc1sc2ccccc2c(=O)c1CO
inactive: [1] 97 % of control | [2] 97 % of control | [3] 97 % of control

Cc1cc(=O)c(C#N)c(C)o1
inactive: [1] 98 % of control | [2] 97 % of control | [3] 90 % of control

O=c1oc2ccccc2cc1Cc1cc2ccccc2oc1=O
inactive: [4] 103 % of control | [5] 97 % of control

O=C(/C=C/c1cn(C(=O)CCCl)c2ccccc12)c1cccc([N+](=O)[O-])c1
inactive: [1] 99 % of control | [2] 96 % of control | [3] 89 % of control

CC(C)C1OCN2C(C)CCCC12 (stereo unspecified)
inactive: dose: 50.0 mg/kg/injection, schedule: Q01DX005 (ip), vehicle: saline 105 % of control | dose: 100.0 mg/kg/injection, schedule: Q01DX005 (ip), vehicle: saline 111 % of control | dose: 200.0 mg/kg/injection, schedule: Q01DX005 (ip), vehicle: saline 111 % of control

CCOC(=O)C1=C(C)O/C(=C/c2ccc(OC)cc2)C1=O
inactive: [4] 98 % of control | [5] 93 % of control | [6] 100 % of control

O=C(O)CCNS(=O)(=O)c1ccc2c(c1)-c1ccccc1C2
inactive: [8] 92 % of control | [9] 102 % of control and 104 % of control and 97 % of control | dose: 100.0 mg/kg/injection, schedule: Q01DX009 (ip), vehicle: saline with Tween-80 101 % of control and 107 % of control and 98 % of control | [10] 102 % of control and 124 % of control

CCCC(C)(O)/C(C)=N/O (stereo unspecified)
inactive: [7] 98 % of control | [8] 101 % of control | [9] 104 % of control and 87 % of control | [10] 90 % of control

CC(=O)Nc1ccc(/C=N/NC(=O)CNC(=O)c2ccccc2)cc1
inactive: [1] 95 % of control | [2] 86 % of control

COC(=O)C(Cc1ccccc1)NC(=O)C(C)NC(=O)c1ccc(OC)cc1 (stereo unspecified)
inactive: dose: 100.0 mg/kg/injection, schedule: Q01DX001 (ip), vehicle: saline with Tween-80 100 % of control | dose: 200.0 mg/kg/injection, schedule: Q01DX001 (ip), vehicle: saline with Tween-80 100 % of control | dose: 400.0 mg/kg/injection, schedule: Q01DX001 (ip), vehicle: saline with Tween-80 93 % of control

Nc1ccc2[se]nc3c2c1C(=O)c1ccccc1-3
inactive: dose: 6.25 mg/kg/injection, schedule: Q01DX005 (ip), vehicle: Klucel (hydroxypropylcellulose) (HPC) 98 % of control | dose: 12.5 mg/kg/injection, schedule: Q01DX005 (ip), vehicle: Klucel (hydroxypropylcellulose) (HPC) 98 % of control | dose: 25.0 mg/kg/injection, schedule: Q01DX005 (ip), vehicle: Klucel (hydroxypropylcellulose) (HPC) 101 % of control

CCCCOc1cc(N)nc2ccccc12
inactive: dose: 12.5 mg/kg/injection, schedule: Q04DX002 (ip), vehicle: saline with Tween-80 95 % of control | dose: 25.0 mg/kg/injection, schedule: Q04DX002 (ip), vehicle: saline with Tween-80 100 % of control | dose: 50.0 mg/kg/injection, schedule: Q04DX002 (ip), vehicle: saline with Tween-80 99 % of control

COC(OC)C(=O)OC(C)(C)C
inactive: [1] 103 % of control | [2] 100 % of control | [3] 101 % of control
